From patent US5114961A, “2,5-diaryl tetrahydrofurans and analogs thereof as PAF antagonists” (Merck & Co., Inc., priority 1990, dated 1992)
Several values for one entry are separate records, joined by “and”; a condition that tells them apart may be missing. Equal entries are not always repeated.

Molecular target: T1, PAF specific receptor binding site (human platelet membranes) (Homo sapiens, UniProt P25105)
T1 construct: platelet membranes at a drug concentration of 3 nM; from tissue; host or cells: human platelet plasma membranes
T1 sequence (P25105 whole entry): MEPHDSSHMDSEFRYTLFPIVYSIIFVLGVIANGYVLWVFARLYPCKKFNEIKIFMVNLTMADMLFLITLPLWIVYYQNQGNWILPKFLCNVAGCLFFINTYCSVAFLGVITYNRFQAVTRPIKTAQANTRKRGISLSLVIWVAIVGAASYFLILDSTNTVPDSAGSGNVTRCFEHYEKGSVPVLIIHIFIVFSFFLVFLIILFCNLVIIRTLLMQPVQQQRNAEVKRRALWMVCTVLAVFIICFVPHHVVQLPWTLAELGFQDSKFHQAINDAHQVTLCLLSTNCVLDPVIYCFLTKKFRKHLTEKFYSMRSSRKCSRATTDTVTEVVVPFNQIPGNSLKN
Experiment: Inhibition of [3H]N-methylcarbamoyl-PAF binding to human platelet membranes
Conditions: drug concentration of 3 nM, trans configuration
Method: The ability of a compound of formula (I) to inhibit the PAF binding to its specific receptor binding site on rabbit or human platelet or PMN plasma membranes was measured by a recently developed assay.
The inhibition of ^3 [H]-PAF or ^3 [H]-N-methyl carbamoyl-TAF binding to the human or rabbit platelet or PMN plasma membrane by a PAF antagonist of formula (I) was determined by a method employing isotopic labeling and filtration techniques. Generally, a series of Tris-buffered solutions of the selected antagonist at predetermined concentrations were prepared. Each of these solutions contains 1 pmole of ^3 H-PAF, a known amount of the test antagonist, and a sufficient amount of the pH 7.5 Tris-buffer solution (10mM Tris, 0.25% bovine serum albumin, and 150 mM NaCl per ml water) to make the final volume of 1 ml. After adding into a set of test tubes each with 100 μg of the platelet plasma membrane suspension (S. B. Hwang, et. al., Biochemistry, Vol. 22 pp. 4756-4763, 1983) and one of the Tris-buffer solutions described above, the resulting mixture in each test tube was incubated at 0° C. for about one hours or until the reaction was complete. Two control samples, one of which (C1) contains all the ingredients described above except the antagonist and the other (C2) contains C1 plus a 100-fold excess of unlabeled PAF, were also prepared and incubated simultaneously with the test samples. After the incubation was completed, the contents of each test tube were filtered under vacuo through a Whatman GF/C fiberglass filter and the residue washed rapidly several times with a total of 20 ml cold (0°-5° C.) Tris-buffer solution. Each washed residue was then suspended in 10 ml scintillation solution (Aquasol 2, New England Nuclear, Conn.) and the radioactivity was counted in a Packard Tri-Carb 460CD Liquid Scintillation System. Defining the counts from a test sample as "Total binding with antagonist"; the counts from the control sample C1, as "Total binding C1 "; and the counts from the control sample C2 as "non-specific binding C2 ", the percent inhibition of each test antagonist can be determined by the following equations: [formula]

Row | Structure (SMILES) | inhibition at 0.003 µM [%]
1 | CCCOc1c(OCCN2CCCCC2)cc([C@H]2CC[C@H](c3cc(OC)c(OC)c(OC)c3)O2)cc1S(=O)(=O)CC(C)=O (relative stereo) [trans-2-[3-(2-Oxopropylsulfonyl)-4-n-propoxy-5-{2-(1-piperidinyl)-ethoxy}phenyl]-5-(3,4,5-trimethoxyphenyl)tetrahydrofuran] | 34
2 | CCCOc1c(OCCN2CCCC2)cc([C@@H]2CC[C@@H](c3cc(OC)c(OC)c(OC)c3)O2)cc1S(=O)(=O)CC(C)=O (relative stereo) [trans-2-[3-(2-Oxopropylsulfonyl)-4-n-propoxy-5-{2-(1-pyrrolidino)-ethoxy}phenyl]-5-(3,4,5-trimethoxyphenyl)tetrahydrofuran] | 29
3 | CCCOc1c(OCCSc2ncc[nH]2)cc([C@H]2CC[C@H](c3cc(OC)c(OC)c(OC)c3)O2)cc1S(=O)(=O)CC(C)=O (relative stereo) [trans-2-[3-(2-Oxopropylsulfonyl)-4-n-propoxy-5-{2-(2-imidazolylthio)ethoxy}phenyl]-5-(3,4,5-trimethoxyphenyl)tetrahydrofuran] | 55
4 | CCCOc1c(OCCCN2CCCC2)cc([C@@H]2CC[C@@H](c3cc(OC)c(OC)c(OC)c3)O2)cc1S(=O)(=O)CC(C)=O (relative stereo) [trans-2-[3-(2-Oxopropylsulfonyl)-4-n-propoxy-5-{3-(1-pyrrolidino)-n-propoxy}phenyl]-5-(3,4,5-trimethoxyphenyl)tetrahydrofuran] | 48
5 | CCCOc1c(OCCCSc2nc[nH]n2)cc([C@@H]2CC[C@@H](c3cc(OC)c(OC)c(OC)c3)O2)cc1S(=O)(=O)CC(C)=O (relative stereo) [trans-2-[3-(2-Oxopropylsulfonyl)-4-n-propoxy-5-{3-(1H-1,2,4-triazolyl-3-thio)n-propoxy}phenyl]-5-(3,4,5-trimethoxyphenyl)tetrahydrofuran] | 69
6 | CCCOc1c(OCCCSc2ncc[nH]2)cc([C@H]2CC[C@H](c3cc(OC)c(OC)c(OC)c3)O2)cc1S(=O)(=O)CC(C)=O (relative stereo) [trans-2-[3-(2-Oxopropylsulfonyl)-4-n-propoxy-5-{3-(2-imidazolylthio)propoxy}phenyl]-5-(3,4,5-trimethoxyphenyl)tetrahydrofuran] | 45
7 | CCCOc1c(OCCCCN2CCOCC2)cc([C@@H]2CC[C@@H](c3cc(OC)c(OC)c(OC)c3)O2)cc1S(=O)(=O)CC(C)=O (relative stereo) [trans-2-[3-(2-Oxopropylsulfonyl)-4-n-propoxy-5-{4-(1-morpholino)-n-butoxy}phenyl]-5-(3,4,5-trimethoxyphenyl)tetrahydrofuran] | 30
8 | CCCOc1c(OCCCCSc2ncc[nH]2)cc([C@H]2CC[C@H](c3cc(OC)c(OC)c(OC)c3)O2)cc1S(=O)(=O)CC(C)=O (relative stereo) [trans-2-[3-(2-Oxopropylsulfonyl)-4-n-propoxy-5-{4-(2-imidazolylthio)butoxy}phenyl]-5-(3,4,5-trimethoxyphenyl)tetrahydrofuran] | 60
9 | CCCOc1c(OCCCN2CCOCC2)cc([C@@H]2CC[C@@H](c3cc(OC)c(OC)c(OC)c3)O2)cc1S(=O)(=O)CC(C)O (relative stereo) [trans-2-[3-(2-hydroxypropyl-sulfonyl)-4-propoxy-5-{3-(1-morpholino)-n-propoxy}phenyl]-5-(3,4,5-trimethoxyphenyl)tetrahydrofuran] | 18
10 | CCCOc1c(OCCCN2CCOCC2)cc([C@@H]2CC[C@@H](c3cc(OC)c(OC)c(OC)c3)O2)cc1S(=O)(=O)CC(C)=O (relative stereo) [trans-2-[3-(2-oxopropylsulfonyl)-4-n-propoxy-5-{3-(1-morpholino)-n-propoxy}phenyl]-5-(3,4,5-trimethoxyphenyl)tetrahydrofuran] | 31
11 | CCCOc1c(OCCCN2CCOCC2)cc([C@@H]2CC[C@@H](c3cc(OC)c(OC)c(OC)c3)O2)cc1S(=O)(=O)CCC(C)O (relative stereo) [trans-2-[3-(3-Hydroxybutyl)sulfonyl-4-n-propoxy-5-(3-{1-morpholino}-n-propoxy)phenyl]-5-(3,4,5-trimethoxyphenyl)tetrahydrofuran] | 25
12 | CCCS(=O)(=O)c1cc([C@@H]2CC[C@@H](c3cc(OC)c(OC)c(OC)c3)O2)cc(OCCN2CCOCC2)c1OCCCCCCO (relative stereo) [trans-2-[3-n-Propylsulfonyl-4-(6-hydroxy-n-hexyloxy)-5-{2-(1-morpholino)-ethoxy}phenyl]5-(3,4,5-trimethoxyphenyl)tetrahydrofuran] | 55
13 | CCCS(=O)(=O)c1cc([C@@H]2CC[C@@H](c3cc(OC)c(OC)c(OC)c3)O2)cc(OC)c1OCCSc1ncc[nH]1 (relative stereo) [trans-2-[3-n-Propylsulfonyl-4-{2-(2-imidazolthio)ethoxy}-5-methoxyphenyl]-5-(3,4,5-trimethoxyphenyl) tetrahydrofuran] | 60
14 | CCCS(=O)(=O)c1cc([C@@H]2CC[C@@H](c3cc(OC)c(OC)c(OC)c3)O2)cc(OC)c1OCCSc1nc[nH]n1 (relative stereo) [trans-2-[3-n-Propylsulfonyl-4-{2-(3-triazolthio)ethoxy}-5-methoxyphenyl]-5-(3,4,5-trimethoxyphenyl) tetrahydrofuran] | 23
15 | CCCS(=O)(=O)c1cc([C@@H]2CC[C@@H](c3cc(OC)c(OC)c(OC)c3)O2)cc(OC)c1OCCSc1ccc(-c2nn[nH]n2)cc1 (relative stereo) [trans-2-[3-n-Propylsulfonyl-4-{2-(4-(2-tetrazo)phenylthio)ethoxy}-5-methoxyphenyl]-5-(3,4,5-trimethoxyphenyl)tetrahydrofuran] | 52
16 | CCCS(=O)(=O)c1cc([C@H]2CC[C@H](c3cc(OC)c(OC)c(OC)c3)O2)cc(OC)c1OCCSc1ccc(C(=N)N)cc1 (relative stereo) [trans-2-[3-n-Propylsulfonyl-4-{2-(4-amidinophenylthio)ethoxy}-5-methoxyphenyl]-5-(3,4,5-trimethoxyphenyl)tetrahydrofuran] | 60
17 | CCCS(=O)(=O)c1cc([C@H]2CC[C@H](c3cc(OC)c(OC)c(OC)c3)O2)cc(OC)c1OCCSc1ccc(C#N)cc1 (relative stereo) [trans-2-[3-n-Propylsulfonyl-4-{2-(4-cyanophenylthio)ethoxy}-5-methoxyphenyl]-5-(3,4,5-trimethoxyphenyl) tetrahydrofuran] | 93
18 | CCCS(=O)(=O)c1cc([C@H]2CC[C@H](c3cc(OC)c(OC)c(OC)c3)O2)cc(OC)c1OCCSc1ccc(N(C)C)cc1 (relative stereo) [trans-2-[3-n-Propylsulfonyl-4-{2-(4-dimethylaminophenylthio)ethoxy}-5-methoxyphenyl]-5-(3,4,5-trimethoxyphenyl)tetrahydrofuran] | 66
19 | CCCS(=O)(=O)c1cc([C@H]2CC[C@H](c3cc(OC)c(OC)c(OC)c3)O2)cc(OC)c1OCCSc1ccncc1 (relative stereo) [trans-2-[3-n-Propylsulfonyl-4-{2-(4-pyridylthio)ethoxy}-5-methoxyphenyl]-5-(3,4,5-trimethoxyphenyl) tetrahydrofuran] | 73
20 | CCCS(=O)(=O)c1cc([C@@H]2CC[C@@H](c3cc(OC)c(OC)c(OC)c3)O2)cc(OC)c1OCCS(=O)(=O)c1ccccc1 (relative stereo) [trans-2-[3-n-Propylsulfonyl-4-{2-(Phenylsulfonyl)ethoxy}-5-methoxyphenyl]-5-(3,4,5-trimethoxyphenyl(tetrahydrofuran] | 73
21 | CCCS(=O)(=O)c1cc([C@@H]2CC[C@@H](c3cc(OC)c(OC)c(OC)c3)O2)cc(OCCCN2CCOCC2)c1OCCCCCCO (relative stereo) [trans-2-]3-n-Propylsulfonyl-4-(6-hydroxyhexyloxy)-5-{3-(1-morpholino)n-propoxy}phenyl]-5-trimethoxyphenyl)tetrahydrofuran] | 48
22 | CCCOc1c(OCCCc2cccnc2)cc([C@H]2CC[C@H](c3cc(OC)c(OC)c(OC)c3)O2)cc1S(=O)(=O)CC(C)=O (relative stereo) [trans-2-{3-(2-Oxopropylsulfonyl)-4-n-propoxy-5-[3-(3-pyridyl)propoxy}phenyl]-5-(3,4,5-trimethoxyphenyl) tetrahydrofuran] | 62

Same assay, conditions: drug concentration of 3 nM, trans configuration, 0.003 µM

Row | Structure (SMILES) | % Inhibition of the binding of [3H]N-methylcarbamoyl-PAF to human platelet membranes
23 | CCCS(=O)(=O)c1cc([C@H]2CC[C@H](c3cc(OC)c(OC)c(OC)c3)O2)cc(OC)c1OCCSc1ccc(O)cc1 (relative stereo) [trans-2-[3-Propylsulfonyl-4-{2-(4-hydroxyphenylthio)-ethoxy}-5-methoxyphenyl]-5-(3,4,5-trimethoxyphenyl) tetrahydrofuran] | 60% and 100%
